{"source": "patent US20090270453A1", "about": "“ANTI-MANIC EFFECTIVE DOSES OF SERTINDOLE” (priority 2007, published 2009)", "key": {"[1]": {"tested_on": "AMPH+CDP induced locomotor activity", "conditions": "rats; Lamberty, et al. 2001; cited from earlier work"}, "[2]": {"tested_on": "sensitized response to an acute AMPH challenge", "conditions": "mice; Husum 2005, poster no. 32.06; cited from earlier work"}, "[3]": {"tested_on": "baseline locomotor activity of control rats", "assay": "Baseline locomotor activity of control rats in locomotor box", "type": "in vivo, Male Wistar rats", "conditions": "for Average Crossings in % (SEM): % of control group set to 100%; for effect on baseline (basal) locomotor activity: locomotor box about 2 hours, administered doses", "protocol": "(§1) Subjects: Male Wistar rats weighing about 150-200 g were housed 2-4 rats per cage in makrolon cages (about 20×about 35 cm) equipped with sawdust and with one plastic house for enrichment. The animals were kept at room temperature (about 20° C.±2) in about 12-hour light/dark cycle (lights on at about 06:00) with free access to food and tap water. The rats were allowed to acclimatize to the animal facility premises for about 5-9 days prior to the initiation of experiments. The animals were taken to the experimental room on the day before the experiment and weighed.\n(§2) Test procedure: For the assessment of locomotor activity, makrolon cages (about 20×about 35 cm) with a thin layer of standard bedding material were placed in a U-frame equipped longitudinally with 4 infrared light sources and photocells placed about 4 cm above the bottom of the cage. All experiments were conducted under normal light conditions. The animals were placed individually in test boxes and the assessment of locomotor activity was immediately begun. During the test session, locomotor activity was recorded as crossings of infrared light beams and total locomotor activity was the accumulated number of crossings over the approximately 120-min period. The recording of a motility count required the crossing of two adjacent light beams, thus avoiding counts induced by stationary movements of the rat.\nStatistical analysis of differences in total locomotor activity (normalized data) among the various treatment groups was carried out using a two-way ANOVA with factors treatment (AMPH+CDP vs. vehicle) and drug (drug vs. vehicle). In case of a significant interaction, a post hoc Student-Newman-Keuls Method was used for multiple comparisons. A probability level of 0.05 was considered significant."}, "[4]": {"tested_on": "sensitized response to an acute AMPH challenge", "assay": "Sensitized AMPH response model (induced hyperactivity)", "type": "in vivo, Male Crl:NMRI mice", "conditions": "for effect on AMPH induced hyperactivity in sensitized mice: s.c. pre-treatment, about 30 min recording", "protocol": "(§3) Subjects: Male Crl:NMRI mice (about 20 g) were at the animal facility about 5 days prior to the start of the experiment and were housed in climate-controlled animal facilities under normal light-dark cycle (lights on about 06:00 to about 18:00). The mice were kept 6 per cage and allowed enrichment (two plastic houses+nesting material).\n(§4) Drugs: All compounds were administered subcutaneously and are listed as free base doses. The mice were pre-treated with either d-amphetamine (about 1.8 mg/kg) or vehicle (about 0.9% NaCl, about 10 ml/kg) once daily for five consecutive days.\nTest procedure: About 17-19 days after the pre-treatment, the animals were treated with test substance or vehicle and individually placed to habituate for about 30 min in motility boxes (about 20×about 32 cm) equipped with about 5×about 8 light sources and infrared cells spaced by about 4 cm. The light beams crossed the cage 1.8 cm above the bottom of the cage. Recording of a motility count requires interruption of adjacent light beams, thus avoiding counts induced by stationary movements of the mice. After habituation, an acute dose of d-amphetamine (about 0.95 mg/kg) or vehicle was administered and data acquisition was begun and lasted for about 30 min.\n(§5) Data Analysis: Data were averaged within the groups (n=12) and are presented as mean±SD. The acute effect of test substance against the sensitized response to amphetamine was statistically evaluated by one-way ANOVA of variance: Dunn's method was applied for post hoc testing against the sensitized group receiving (NaCl, about 1 ml/kg) followed by CDP (about 8.9 mg/kg in 10% hydroxypropyl-beta-cyclodextrin) was administrated about 35 minutes before the test. A parallel set of control animal received two vehicle injections."}, "[5]": {"tested_on": "AMPH+CDP induced locomotor activity", "assay": "Sensitized AMPH+CDP response model (induced locomotor hyperactivity)", "type": "in vivo, Male Wistar rats", "conditions": "for effect on AMPH+CDP induced locomotor activity (hyperactivity): rats, s.c. pre-treatment, about 120 min test-period", "protocol": "as §1\nDrugs: All drugs are listed as mg free base/kg with the exception of lithium (mEq/kg). Drug solutions were titrated into a pH range of about 4.5-7.0 for subcutaneous (s.c.) administration. To induce hyperactivity, amphetamine sulphate (about 0.9 mg/kg in about 0.9% NaCl, about 1 ml/kg) followed by CDP (7-Chloro-2-(methylmino)-5-phenyl-3h-1,4-benzodiazepine-4-oxide, about 8.9 mg/kg in about 10% hydroxypropyl-beta-cyclodextrin) was administrated about 35 minutes before the test. A parallel set of control animal received two vehicle injections. Lithium chloride (about 0.2-0.9 mEq/kg) was dissolved in distilled water isosmotically supplemented with NaCl, and administrated about 210 minutes before testing. Lamotrigine (6-(2,3-Dichloro-phenyl)-[1,2,4]-triazine-3,5-diamine, about 2.5-80 mg/kg) was dissolved in about 10% hydroxypropyl-beta-cyclodextrin and administrated about 30 minutes before the test.\nas §2\nData Analysis: The average total basal locomotor activity of the control groups in the different experiments varied between 322-516 light beam crossings (see Table 1). Due to this variation, the results in each experiment were normalized to percentage activity relative to the average total locomotor activity of control group that was set as 100%. Statistical analysis of differences in total locomotor activity (normalized data) among the various treatment groups was carried out using a two-way ANOVA with factors treatment (AMPH+CDP vs. vehicle) and drug (drug vs. vehicle). In case of a significant interaction, a post hoc Student-Newman-Keuls Method was used for multiple comparisons. A probability level of 0.05 was considered significant.\nCrossings of light-beams as a measure of locomotor activity over about a 120 min test-period is shown as percentage of the control group-level that is set to 100%. The bars show the mean±SEM for each group and the dots show the activity of individual rats (n=10-12). Administration of amphetamine (about 0.9 mg/kg, s.c.) and chlordiazepoxide (about 8.9 mg/kg, s.c.) produced a significant increase in locomotor activity (***p<0.001 vs. control group (O) in all experiments)."}, "[6]": {"tested_on": "saline activity", "assay": "Activity of saline (non-AMPH) mice in the sensitized AMPH response model", "type": "in vivo, Male Crl:NMRI mice", "conditions": "sertindole about 0.63 mg/kg", "protocol": "as §3, §4\nTest procedure: About 17-19 days after the pre-treatment, the animals were treated with test substance or vehicle and individually placed to habituate for about 30 min in motility boxes (about 20×about 32 cm) equipped with about 5×about 8 light sources and infrared cells spaced by about 4 cm. The light beams crossed the cage 1.8 cm above the bottom of the cage. […]\nas §5, with “A parallel set of control animal received two vehicle injections.” left out"}, "[7]": {"tested_on": "serotonin 5-HT2", "conditions": "Sanchez et al. 1991; Arnt and Skarsfeldt 1998; cited from earlier work"}, "[8]": {"molecular_target": "dopamine D2 (Homo sapiens, UniProt P14416)", "sequence (P14416 whole entry)": "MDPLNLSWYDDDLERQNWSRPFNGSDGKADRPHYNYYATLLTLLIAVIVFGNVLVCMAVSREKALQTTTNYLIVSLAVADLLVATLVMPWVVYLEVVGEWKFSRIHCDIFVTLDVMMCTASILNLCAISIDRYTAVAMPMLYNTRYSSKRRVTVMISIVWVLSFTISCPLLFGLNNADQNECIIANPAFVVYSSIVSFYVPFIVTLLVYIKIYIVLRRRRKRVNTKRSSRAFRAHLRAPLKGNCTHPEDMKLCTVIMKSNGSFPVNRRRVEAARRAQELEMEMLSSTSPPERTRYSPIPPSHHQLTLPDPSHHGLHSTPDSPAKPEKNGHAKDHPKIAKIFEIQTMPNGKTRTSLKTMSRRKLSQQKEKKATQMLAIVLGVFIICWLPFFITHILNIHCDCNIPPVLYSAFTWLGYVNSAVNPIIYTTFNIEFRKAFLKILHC", "conditions": "Sanchez et al. 1991; Arnt and Skarsfeldt 1998; cited from earlier work"}, "[9]": {"tested_on": "α1-adrenergic receptors", "conditions": "Sanchez et al. 1991; Arnt and Skarsfeldt 1998; cited from earlier work"}, "[10]": {"tested_on": "schizophrenic patients", "conditions": "human clinical studies; Daniel D, et al. 1995; cited from earlier work"}}, "note": "Entries after “also recorded” stand apart in the source; their conditions may differ."}
{"smiles": "NC(=O)N1c2ccccc2C=Cc2ccccc21", "note": "[carbamazepine]", "values": [{"measurement": "effectiveness in the AMPH+CDP induced hyperactivity model", "setting": "[1]", "value": "effective"}, {"measurement": "effect on the sensitized response to an acute AMPH challenge", "setting": "[2]", "value": "dose-dependently abolish; also recorded: reversed the effect of acute AMPH administration"}]}
{"smiles": "CCCC(CCC)C(=O)O", "note": "[valproate]", "values": [{"measurement": "effectiveness in the AMPH+CDP induced hyperactivity model", "setting": "[1]", "value": "effective"}, {"measurement": "effect on the sensitized response to an acute AMPH challenge", "setting": "[2]", "value": "dose-dependently abolish; also recorded: reversed the effect of acute AMPH administration"}]}
{"smiles": "CN(C)CCCC1(c2ccc(F)cc2)OCc2cc(C#N)ccc21", "note": "(centres unmarked) [citalopram]", "values": [{"measurement": "Average Crossings in % (SEM)", "setting": "[3]; 0.8 mg/kg", "value": 71.0, "unit": "%"}, {"measurement": "effect on baseline (basal) locomotor activity", "setting": "[3]", "value": "no significant effect"}, {"measurement": "effect on AMPH induced hyperactivity in sensitized mice", "setting": "[4]", "value": "no effect"}, {"measurement": "effect on AMPH induced hyperactivity in sensitized mice", "setting": "[4]; listed as Citalopram", "value": "inactive"}]}
{"smiles": "Nc1nnc(-c2cccc(Cl)c2Cl)c(N)n1", "note": "[lamotrigine, 6-(2,3-Dichloro-phenyl)-[1,2,4]-triazine-3,5-diamine]", "values": [{"measurement": "significance of reduction of AMPH+CDP induced locomotor activity", "setting": "[5]; lamotrigine about 20 mg/kg, about 30 min s.c. pre-treatment", "value": "significant"}, {"measurement": "significance of reduction of AMPH+CDP induced locomotor activity", "setting": "[5]; lamotrigine about 20 mg/kg, about 30 min s.c. pre-treatment, listed as Lamotrigine", "value": "significantly counteracted"}, {"measurement": "significance of reduction of AMPH+CDP induced locomotor activity", "setting": "[5]; lamotrigine about 40 mg/kg, about 30 min s.c. pre-treatment", "value": "significant"}, {"measurement": "significance of reduction of AMPH+CDP induced locomotor activity", "setting": "[5]; lamotrigine about 40 mg/kg, about 30 min s.c. pre-treatment, listed as Lamotrigine", "value": "significantly counteracted"}, {"measurement": "significance of reduction of AMPH+CDP induced locomotor activity", "setting": "[5]; lamotrigine about 80 mg/kg, about 30 min s.c. pre-treatment", "value": "significant"}, {"measurement": "significance of reduction of AMPH+CDP induced locomotor activity", "setting": "[5]; lamotrigine about 80 mg/kg, about 30 min s.c. pre-treatment, listed as Lamotrigine", "value": "significantly counteracted"}, {"measurement": "effect on AMPH+CDP induced locomotor activity (hyperactivity)", "setting": "[5]", "value": "significantly reduced; also recorded: reduced the induced locomotor activity"}, {"measurement": "effect on AMPH+CDP induced locomotor activity (hyperactivity)", "setting": "[5]; listed as Lamotrigine", "value": "significantly and dose-dependently decreased"}, {"measurement": "Average Crossings in % (SEM)", "setting": "[3]; 2.5 mg/kg", "value": 114.5, "unit": "%"}, {"measurement": "Average Crossings in % (SEM)", "setting": "[3]; 10 mg/kg", "value": 107.9, "unit": "%"}, {"measurement": "Average Crossings in % (SEM)", "setting": "[3]; 20 mg/kg", "value": 97.2, "unit": "%"}, {"measurement": "Average Crossings in % (SEM)", "setting": "[3]; 40 mg/kg", "value": 82.0, "unit": "%"}, {"measurement": "Average Crossings in % (SEM)", "setting": "[3]; 80 mg/kg", "value": 83.0, "unit": "%"}, {"measurement": "effect on baseline (basal) locomotor activity", "setting": "[3]", "value": "not reduced; also recorded: no significant effect"}, {"measurement": "effect on the sensitized response to an acute AMPH challenge", "setting": "[2]", "value": "dose-dependently abolish; also recorded: reversed the effect of acute AMPH administration"}]}
{"smiles": "O=C1NCCN1CCN1CCC(c2cn(-c3ccc(F)cc3)c3ccc(Cl)cc23)CC1", "note": "[sertindole]", "values": [{"measurement": "effect on AMPH+CDP induced locomotor activity (hyperactivity)", "setting": "[5]", "value": "reduced the induced locomotor activity; also recorded: significantly decreased; also recorded: active"}, {"measurement": "significance of reduction of AMPH+CDP induced locomotor activity", "setting": "[5]; sertindole about 0.16 mg/kg, about 120 min s.c. pre-treatment", "value": "significant"}, {"measurement": "significance of reduction of AMPH+CDP induced locomotor activity", "setting": "[5]; sertindole about 1.25 mg/kg, about 120 min s.c. pre-treatment", "value": "significant"}, {"measurement": "Average Crossings in % (SEM)", "setting": "[3]; 0.02 mg/kg", "value": 116.7, "unit": "%"}, {"measurement": "Average Crossings in % (SEM)", "setting": "[3]; 0.16 mg/kg", "value": 119.9, "unit": "%"}, {"measurement": "Average Crossings in % (SEM)", "setting": "[3]; 1.25 mg/kg", "value": 132.4, "unit": "%"}, {"measurement": "effect on baseline (basal) locomotor activity", "setting": "[3]", "value": "no significant effect"}, {"measurement": "effect on AMPH induced hyperactivity in sensitized mice", "setting": "[4]", "value": "reversed the induced hyperactivity; also recorded: significantly decreased; also recorded: active"}, {"measurement": "effect on induced hyperactivity", "setting": "[4]; sertindole 0.16 mg/kg", "value": "significantly reversed the induced hyperactivity"}, {"measurement": "effect on saline activity", "setting": "[6]", "value": "significantly decreased the saline activity"}, {"measurement": "affinity for serotonin 5-HT2", "setting": "[7]", "value": "high affinity"}, {"measurement": "affinity for dopamine D2", "setting": "[8]", "value": "high affinity"}, {"measurement": "affinity for α1-adrenergic receptors", "setting": "[9]", "value": "high affinity"}, {"measurement": "doses effective to treat schizophrenic patients", "setting": "[10]", "value": "12 to 24", "unit": "mg/day"}]}
{"smiles": "O=C(CCCN1CCC(O)(c2ccc(Cl)cc2)CC1)c1ccc(F)cc1", "note": "[haloperidol]", "values": [{"measurement": "effect on the sensitized response to an acute AMPH challenge", "setting": "[2]", "value": "reversed the effect of acute AMPH administration"}]}
